SMILES | melting point
CCOC(=O)c1cc(OCc2ccccc2)c2nc(C3CC3)n(C)c2c1 | 120 °C
CC1=C(C(=O)OC(CN2CCCCC2)c2ccccc2)C(c2cccc([N+](=O)[O-])c2)n2nccc2N1 (stereo unspecified) | 92 to 93 °C
CCCCc1cn(-c2c(C)cc(C(C)(C)C)cc2C)c(=O)n1Cc1ccc(-c2ccccc2-c2nnn[nH]2)cc1 | 134 to 135 °C
CCCCCCCCCCCCCCCCCCCCCC(=O)Nc1ccc(NC(=O)NS(=O)(=O)c2ccc3ccccc3c2)cc1 | 179 °C
O=c1ccc([N+](=O)[O-])cn1[C@@H]1c2ccccc2OCC[C@H]1O (relative stereo) | 152 to 155 °C
CN1C(=O)CC(c2ccccc2)C1C(O)C#Cc1ccccc1 (stereo unspecified) | 152 to 153 °C
CCC(=O)COc1nn(CC(=O)CC)c(-c2ccc(F)cc2)c1-c1ccc(S(C)(=O)=O)cc1 | 56 to 58 °C
CCCCN(CC)CC(=O)N1c2ccccc2N(C)C(=O)c2cncnc21 | 131 to 133 °C
CCCc1nc2c(N)nc3cc(OCCOCCNS(C)(=O)=O)ccc3c2s1 | 134 to 137 °C
N#Cc1ccc(-c2nc(-c3ccc(F)cc3)c(-c3ccnc4ccccc34)[nH]2)cc1 | 294 to 295 °C
CC(=O)OCc1ccc(C#Cc2ccc3c(c2)C(C)(C)CCC3(C)C)cc1 | 136 to 139 °C
C=CCONC(=O)c1c([Si](C)(C)C)ccc(Cl)c1Cl | 92 to 94 °C
Nc1sc2c(c1C(=O)c1cccs1)CCN(Cc1ccccc1)C2 | 122 to 123 °C
O=C(OCC(OC(=O)c1ccccc1)c1nc2c(C(F)(F)F)cccc2c(O)c1C(=O)Nc1nccs1)c1ccccc1 (stereo unspecified) | 240 °C
CC(C)(C)c1ccc(OCC(=O)NCc2ccc(NS(C)(=O)=O)c(O)c2)cc1 | 112 °C
O=C1Nc2ccc(I)cc2C1=NNC(=O)c1ccc(O[C@@H](Cc2ccccc2)C(=O)OCc2ccccc2)cc1 | 194 °C
Cn1cc(-c2cccc(C(F)(F)F)c2)c(=O)c(-c2ccccc2Br)c1 | 197 to 199 °C
CN=C(NC)Nc1ccccc1-c1ccccc1 | 101 to 102 °C
O=C(O)c1cnc2cc([N+](=O)[O-])ccc2n1 | 208 to 210 °C
CCCCCCCCCCCCCCCCCCN(C)C(=O)c1ccc(Cl)c([N+](=O)[O-])c1 | 55 to 56 °C
CCCCc1ccc(-c2ccc(CCc3ccc(C)cc3)cc2)c(F)c1 | 41 °C
Fc1ccc(Cn2c(NC3CCN(CCc4cn5ccsc5n4)CC3)nc3ccccc32)cc1 | 223 °C
CCC1(CCCN2CCN(c3ccccn3)CC2)C(=O)Nc2ccccc21 (stereo unspecified) | 122 to 124 °C
CCOC(=O)c1ccc(NCCCCCCCCCCCOc2ccccc2)cc1 | 83 to 87 °C
Cc1ccc(S(=O)(=O)Nc2ccc(C#N)cc2)cc1 | 182 to 184 °C
Fc1ccc(NC(=S)c2ccccn2)cc1Cn1ccnc1 | 154 to 156 °C
Nc1ccc(Oc2cccc(C(F)(F)F)c2Cl)cc1 | 65 to 66.5 °C

Second part, the compound after the results:

melting point | SMILES
121 to 123 °C | COc1cc(C(=O)N(C(C)C)C2CCCCC2)ccc1Cn1c(-c2ccccc2Cl)nc2ncccc21
151 to 152 °C | COC(=O)c1c(Cc2ccc(C(=O)NC3CCC(O)CC3)cc2)c(=O)c2ccc(Cl)cc2n1-c1ccccc1 (stereo unspecified)
147 to 148 °C | COC(=O)c1cc(NC(C)=O)ccc1O
180 to 182 °C | CCNc1ncc2cc(-c3c(Cl)cccc3Cl)c(=O)n(C)c2n1
184 to 185 °C | CCOC(=O)c1c(Cn2cncn2)nc2sc3c(c2c1-c1ccc(OC)c(OC)c1)CCCN3C(=O)OCc1ccccc1
92 to 94 °C | CCC(C)(O)CCC1C(C)(OC(C)=O)CCC2C(C)(C)CCCC21C (stereo unspecified)
106 to 108 °C | COc1ccc(NC(=O)c2ccccc2F)c(C(C)=O)c1OC
179 to 181 °C | COc1c(Cl)ccc(-c2cc(N)c(Cl)c(C(=O)NOCc3nnsc3Cl)n2)c1F
228 to 229 °C | Cc1ccc(C(=O)Nc2c(NC(=O)CN3CCN(c4ccccc4F)CC3)ccc3c2C(=O)c2ccccc2C3=O)cc1
193 to 196 °C | CCOC(=NC#N)N[C@@H]1c2cc(C#N)ccc2OC(C)(C)[C@H]1O (relative stereo)
191 °C | O=C(CC1CCOCC1)N[C@H]1CC[C@H](CCN2CCC(c3cccc4c3CCO4)CC2)CC1
169 to 171 °C | O=C1c2ccccc2S(=O)(=O)N1CS(=O)(=O)c1ccccc1
116 to 118 °C | CC(C)(CO)NC(=S)NC(=O)c1ccccc1
215 to 217 °C | O=C1CCC(N2Cc3c(OCc4ccc(CN5CCN(C(=O)C6CCCCC6)CC5)cc4)cccc3C2=O)C(=O)N1 (stereo unspecified)
110 to 114 °C | CCCOC(=O)c1cccc(CCN(C)CCCC(C#N)(c2ccc(OC)c(OC)c2)C(C)C)c1 (stereo unspecified)
275 to 276 °C | Cc1cc(=O)[nH]c2cc(OCCCN3CCC(NC(=O)c4ccccc4)CC3)ccc12
174 °C | CN(C)Cc1cc(C(=O)c2cccn2C)cc(C(C)(C)C)c1O
72 °C | O=C(OCc1ccccc1)C1Cc2sccc2C(=O)N1Cc1ccccc1 (stereo unspecified)
83 to 86 °C | CCOC(=O)/C=C(C)/C=C/C1=C(c2ccc3c(c2)C(C)(C)CCC3(C)C)CCC1
181 to 183 °C | Cc1ccc(NC(=O)Cc2ccccc2C(=O)O)cc1/C=C/c1nc(C(C)C)cs1

melting point | SMILES
241 to 242 °C | O=C(O)c1ccccc1Sc1cc(Cl)ccc1C(=O)O
185 °C | CC(C)c1ccc(N(Cc2cnn(C(C)C)c2)C(=O)C2CCCc3c(O)cccc32)cc1 (stereo unspecified)
105 to 107 °C | CC(=Cc1ccccc1)C(C#N)=NOS(C)(=O)=O
95 to 99 °C | Clc1ccc(CS[C@H]2CO[C@H](c3ccccc3)OC2)cc1
103 °C | CC(O)c1cc(F)ccc1Oc1nc2ccc(-n3cc(-c4ccccc4)nn3)cc2cc1Cc1ccccc1 (stereo unspecified)
234 to 238 °C | CC(C)(O)C(=O)Nc1c(C(=O)c2ccccc2)[nH]c2cc(Cl)ccc12
78 to 80 °C | CCNC(=O)c1c([Si](C)(C)C)ccc(C(C)=O)c1Cl
165 to 166 °C | O=C(Oc1cc([N+](=O)[O-])c(F)cc1Cl)Oc1cc([N+](=O)[O-])c(F)cc1Cl
80 to 83 °C | CCOC(=O)C1C2C1S(=O)(=O)CC2(N)C(=O)OCC (stereo unspecified)
158 °C | CC(C)NCC(=O)Nc1ccc2c(c1)C(=O)c1cc(NC(=O)CNC(C)C)ccc1C2=O
270 to 271 °C | O=C(O)COc1ccc2c(=O)c3c(Cl)cccc3oc2c1Cl
145 to 147 °C | COc1cc(C)ccc1S(=O)(=O)NC(=O)C(c1cc(OC)c2c(c1)OCO2)c1cn(C)c2cc(CO)ccc12 (stereo unspecified)
137 to 139 °C | CCOC(=O)c1cnc2sccc2c1O
85 to 110 °C | Cn1nc(-c2ccccc2)c(Oc2ccc([N+](=O)[O-])cc2)c1-c1ccccc1
86 to 89 °C | CCOC(=NC(=O)Nc1ccc(OC(F)(F)F)cc1)c1ccccc1Cl
123 to 125 °C | O=C(NCCCc1ccncc1)N(CCC12CC3CC(CC(C3)C1)C2)CC1CC1
241 °C | COc1ccc(Nc2nc3cccc(-c4ccc(CN5CCS(=O)(=O)CC5)cc4)n3n2)cc1
255 to 257 °C | CCCc1cc2c(cc1C(=O)c1ccc(C(O)=NO)cc1)C(C)(C)CCC2(C)C
68 to 69 °C | ClC12CCCC(C1)C1CCC2C1 (stereo unspecified)

From a melting point compilation (Tetko et al.; mined from patent text by program, amines drawn as free bases though some values may be those of a salt)
